Test results as given in ChEMBL document CHEMBL1127109, “Thiol and hydroxamic acid containing inhibitors of endothelin converting enzyme” (Bioorg Med Chem Lett, 1993).
pIC50: −log10 of the molar value. Where a SMILES comes first, the peptide text is derived from it. The star is where a group is joined. Cbz = O=C(OCc1ccccc1)*

How the values were obtained:
[1] = target: T1, Endothelin-converting enzyme 1 (Homo sapiens) (UniProt P42892); experiment: Compound was tested in vitro for percent inhibition of a putative Endothelin-converting enzyme at 100 uM partially purified from rabbit lung membrane; assay type: tissue-based; conditions: Oryctolagus cuniculus, target entry is the homologue from another species
T1 sequence (whole entry): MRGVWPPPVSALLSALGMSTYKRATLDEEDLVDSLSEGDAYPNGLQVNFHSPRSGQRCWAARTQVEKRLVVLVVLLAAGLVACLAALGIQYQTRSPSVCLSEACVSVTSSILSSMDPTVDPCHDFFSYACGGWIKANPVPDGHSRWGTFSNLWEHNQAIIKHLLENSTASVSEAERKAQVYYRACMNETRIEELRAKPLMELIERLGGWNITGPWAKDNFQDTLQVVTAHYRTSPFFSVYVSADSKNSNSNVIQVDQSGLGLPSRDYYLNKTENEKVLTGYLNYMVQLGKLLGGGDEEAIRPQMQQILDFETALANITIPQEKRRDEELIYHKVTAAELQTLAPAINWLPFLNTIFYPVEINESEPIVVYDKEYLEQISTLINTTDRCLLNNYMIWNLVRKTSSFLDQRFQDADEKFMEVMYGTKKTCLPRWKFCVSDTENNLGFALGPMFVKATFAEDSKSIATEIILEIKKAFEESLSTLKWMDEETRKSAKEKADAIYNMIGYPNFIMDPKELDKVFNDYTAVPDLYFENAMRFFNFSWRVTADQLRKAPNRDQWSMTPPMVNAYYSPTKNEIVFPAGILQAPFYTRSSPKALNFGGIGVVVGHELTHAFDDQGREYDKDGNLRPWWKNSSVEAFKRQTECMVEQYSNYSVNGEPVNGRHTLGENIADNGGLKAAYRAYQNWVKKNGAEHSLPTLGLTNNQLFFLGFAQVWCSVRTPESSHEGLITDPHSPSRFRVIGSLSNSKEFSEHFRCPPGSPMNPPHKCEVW

Thermolysin = target: T2, Thermolysin (Bacillus thermoproteolyticus, UniProt P00800); experiment: Compound was tested in vitro for inhibitory activity against thermolysin
T2 sequence (P00800 whole entry): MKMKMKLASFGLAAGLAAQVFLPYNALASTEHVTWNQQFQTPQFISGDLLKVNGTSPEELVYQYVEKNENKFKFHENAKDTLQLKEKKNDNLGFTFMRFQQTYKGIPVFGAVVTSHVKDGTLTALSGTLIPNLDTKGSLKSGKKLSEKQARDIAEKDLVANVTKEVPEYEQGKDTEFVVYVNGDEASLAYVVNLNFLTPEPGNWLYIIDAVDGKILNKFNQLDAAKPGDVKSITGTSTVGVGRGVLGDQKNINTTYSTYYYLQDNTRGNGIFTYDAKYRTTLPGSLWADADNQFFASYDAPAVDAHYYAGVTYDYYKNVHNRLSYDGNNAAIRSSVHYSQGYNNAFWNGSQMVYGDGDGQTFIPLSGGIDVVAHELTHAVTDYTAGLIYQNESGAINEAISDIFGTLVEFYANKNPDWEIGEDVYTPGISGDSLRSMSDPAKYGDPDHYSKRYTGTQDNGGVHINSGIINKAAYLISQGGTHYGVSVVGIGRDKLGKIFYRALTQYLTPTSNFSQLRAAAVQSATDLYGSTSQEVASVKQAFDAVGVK

COC(=O)[C@H](Cc1c[nH]c2ccccc12)NC(=O)[C@H](CS)NC(=O)OCc1ccccc1 (Cbz-Cys-Trp-OMe)
inhibition [1]: 93%

O=C(N[C@@H](CS)C(=O)N[C@@H](Cc1c[nH]c2ccccc12)C(=O)O)OCc1ccccc1 (Cbz-Cys-Trp-OH)
inhibition [1]: 90%

CC(C)C[C@H](C(=O)NO)C(=O)N[C@@H](C)C(=O)NCC(N)=O
pIC50 (Thermolysin): 7.19

CC(C)C[C@H](NC(=O)[C@H](CS)NC(=O)OCc1ccccc1)C(=O)N[C@@H](Cc1c[nH]c2ccccc12)C(=O)O (Cbz-Cys-Leu-Trp-OH)
inhibition [1]: 75%

COC(=O)[C@H](CC(C)C)NC(=O)[C@H](CS)NC(=O)OCc1ccccc1
inhibition [1]: 89%

COC(=O)[C@H](Cc1c[nH]c2ccccc12)NC(=O)[C@H](CC(C)C)NC(=O)[C@H](CS)NC(=O)OCc1ccccc1 (Cbz-Cys-Leu-Trp-OMe)
inhibition [1]: 83%
